Measurements: PubChem BioAssay (NCI)
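Tested at 5 concentrations; 48 h exposure; 96-well plates; endpoints linearly interpolated, else capped at highest concentration. Abbreviation: GI50, concentration required for 50% inhibition of growth. TGI: concentration producing complete growth inhibition.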

Assays:
Experiment in all cases: DTP human tumour cell line panel, 48 h
786-0 renal = test system: 786-0 renal
A549 NSCLC = test system: A549 NSCLC
ACHN renal = test system: ACHN renal
BT-549 breast = test system: BT-549 breast
CAKI-1 renal = test system: CAKI-1 renal
CCRF-CEM leukemia = test system: CCRF-CEM leukemia
COLO 205 colon = test system: COLO 205 colon
DU-145 prostate = test system: DU-145 prostate
HCC-2998 colon = test system: HCC-2998 colon
HCT-116 colon = test system: HCT-116 colon
HCT-15 colon = test system: HCT-15 colon
HL-60(TB) leukemia = test system: HL-60(TB) leukemia
HOP-62 NSCLC = test system: HOP-62 NSCLC
HOP-92 NSCLC = test system: HOP-92 NSCLC
HS 578T breast = test system: HS 578T breast
HT29 colon = test system: HT29 colon
IGROV1 ovarian = test system: IGROV1 ovarian
K-562 leukemia = test system: K-562 leukemia
KM12 colon = test system: KM12 colon
LOX IMVI melanoma = test system: LOX IMVI melanoma
MALME-3M melanoma = test system: MALME-3M melanoma
MCF7 breast = test system: MCF7 breast
MDA-MB-231 breast = test system: MDA-MB-231 breast
MDA-MB-435 = test system: MDA-MB-435
MOLT-4 leukemia = test system: MOLT-4 leukemia
NCI-H226 lung = test system: NCI-H226 lung
NCI-H23 lung = test system: NCI-H23 lung
NCI-H522 lung = test system: NCI-H522 lung
NCI/ADR-RES ovarian = test system: NCI/ADR-RES ovarian
OVCAR-3 ovarian = test system: OVCAR-3 ovarian
OVCAR-4 ovarian = test system: OVCAR-4 ovarian
OVCAR-5 ovarian = test system: OVCAR-5 ovarian
OVCAR-8 ovarian = test system: OVCAR-8 ovarian
PC-3 prostate = test system: PC-3 prostate
RPMI-8226 leukemia = test system: RPMI-8226 leukemia
RXF 393 renal = test system: RXF 393 renal
SF-268 CNS = test system: SF-268 CNS
SF-295 CNS = test system: SF-295 CNS
SF-539 CNS = test system: SF-539 CNS
SK-MEL-2 melanoma = test system: SK-MEL-2 melanoma
SK-MEL-28 melanoma = test system: SK-MEL-28 melanoma
SK-MEL-5 melanoma = test system: SK-MEL-5 melanoma
SK-OV-3 ovarian = test system: SK-OV-3 ovarian
SN12C renal = test system: SN12C renal
SNB-19 CNS = test system: SNB-19 CNS
SNB-75 CNS = test system: SNB-75 CNS
SR leukemia = test system: SR leukemia
SW-620 colon = test system: SW-620 colon
T-47D breast = test system: T-47D breast
TK-10 renal = test system: TK-10 renal
U251 CNS = test system: U251 CNS
UACC-257 melanoma = test system: UACC-257 melanoma
UACC-62 melanoma = test system: UACC-62 melanoma
UO-31 renal = test system: UO-31 renal

SMILES: Cc1ccc(C)c(-c2csc(Nc3ccc(C)c(C)c3)n2)c1
- GI50 (786-0 renal): 39.5 µM
- TGI (786-0 renal): > 100 µM
- GI50 (A549 NSCLC): > 100 µM
- TGI (A549 NSCLC): > 100 µM
- GI50 (ACHN renal): 82.2 µM
- TGI (ACHN renal): > 100 µM
- GI50 (BT-549 breast): > 100 µM
- TGI (BT-549 breast): > 100 µM
- GI50 (CAKI-1 renal): > 100 µM
- TGI (CAKI-1 renal): > 100 µM
- GI50 (CCRF-CEM leukemia): > 100 µM
- TGI (CCRF-CEM leukemia): > 100 µM
- GI50 (COLO 205 colon): > 100 µM
- TGI (COLO 205 colon): > 100 µM
- GI50 (DU-145 prostate): > 100 µM
- TGI (DU-145 prostate): > 100 µM
- GI50 (HCC-2998 colon): > 100 µM
- TGI (HCC-2998 colon): > 100 µM
- GI50 (HCT-116 colon): > 100 µM
- TGI (HCT-116 colon): > 100 µM
- GI50 (HCT-15 colon): 4.08 µM
- TGI (HCT-15 colon): > 100 µM
- GI50 (HL-60(TB) leukemia): > 100 µM
- TGI (HL-60(TB) leukemia): > 100 µM
- GI50 (HOP-62 NSCLC): 36.8 µM
- TGI (HOP-62 NSCLC): > 100 µM
- GI50 (HOP-92 NSCLC): 29 µM
- TGI (HOP-92 NSCLC): > 100 µM
- GI50 (HS 578T breast): 30.6 µM
- TGI (HS 578T breast): > 100 µM
- GI50 (HT29 colon): > 100 µM
- TGI (HT29 colon): > 100 µM
- GI50 (IGROV1 ovarian): 62.8 µM
- TGI (IGROV1 ovarian): > 100 µM
- GI50 (K-562 leukemia): > 100 µM
- TGI (K-562 leukemia): > 100 µM
- GI50 (KM12 colon): > 100 µM
- TGI (KM12 colon): > 100 µM
- GI50 (LOX IMVI melanoma): > 100 µM
- TGI (LOX IMVI melanoma): > 100 µM
- GI50 (MALME-3M melanoma): > 100 µM
- TGI (MALME-3M melanoma): > 100 µM
- GI50 (MCF7 breast): 35.9 µM
- TGI (MCF7 breast): > 100 µM
- GI50 (MDA-MB-231 breast): > 100 µM
- TGI (MDA-MB-231 breast): > 100 µM
- GI50 (MDA-MB-435): > 100 µM
- TGI (MDA-MB-435): > 100 µM
- GI50 (MOLT-4 leukemia): > 100 µM
- TGI (MOLT-4 leukemia): > 100 µM
- GI50 (NCI-H226 lung): > 100 µM
- TGI (NCI-H226 lung): > 100 µM
- GI50 (NCI-H23 lung): 65.7 µM
- TGI (NCI-H23 lung): > 100 µM
- GI50 (NCI-H522 lung): 67.1 µM
- TGI (NCI-H522 lung): > 100 µM
- GI50 (NCI/ADR-RES ovarian): > 100 µM
- TGI (NCI/ADR-RES ovarian): > 100 µM
- GI50 (OVCAR-3 ovarian): 66.3 µM
- TGI (OVCAR-3 ovarian): > 100 µM
- GI50 (OVCAR-4 ovarian): 48.3 µM
- TGI (OVCAR-4 ovarian): > 100 µM
- GI50 (OVCAR-5 ovarian): > 100 µM
- TGI (OVCAR-5 ovarian): > 100 µM
- GI50 (OVCAR-8 ovarian): 74.7 µM
- TGI (OVCAR-8 ovarian): > 100 µM
- GI50 (PC-3 prostate): 7 µM
- TGI (PC-3 prostate): > 100 µM
- GI50 (RPMI-8226 leukemia): > 100 µM
- TGI (RPMI-8226 leukemia): > 100 µM
- GI50 (RXF 393 renal): 24.2 µM
- TGI (RXF 393 renal): > 100 µM
- GI50 (SF-268 CNS): 29.8 µM
- TGI (SF-268 CNS): > 100 µM
- GI50 (SF-295 CNS): 57.9 µM
- TGI (SF-295 CNS): > 100 µM
- GI50 (SF-539 CNS): 44.6 µM
- TGI (SF-539 CNS): > 100 µM
- GI50 (SK-MEL-2 melanoma): > 100 µM
- TGI (SK-MEL-2 melanoma): > 100 µM
- GI50 (SK-MEL-28 melanoma): > 100 µM
- TGI (SK-MEL-28 melanoma): > 100 µM
- GI50 (SK-MEL-5 melanoma): > 100 µM
- TGI (SK-MEL-5 melanoma): > 100 µM
- GI50 (SK-OV-3 ovarian): > 100 µM
- TGI (SK-OV-3 ovarian): > 100 µM
- GI50 (SN12C renal): > 100 µM
- TGI (SN12C renal): > 100 µM
- GI50 (SNB-19 CNS): 77 µM
- TGI (SNB-19 CNS): > 100 µM
- GI50 (SNB-75 CNS): 15.8 µM
- TGI (SNB-75 CNS): 53.2 µM
- GI50 (SR leukemia): > 100 µM
- TGI (SR leukemia): > 100 µM
- GI50 (SW-620 colon): > 100 µM
- TGI (SW-620 colon): > 100 µM
- GI50 (T-47D breast): > 100 µM
- TGI (T-47D breast): > 100 µM
- GI50 (TK-10 renal): > 100 µM
- TGI (TK-10 renal): > 100 µM
- GI50 (U251 CNS): 52.9 µM
- TGI (U251 CNS): > 100 µM
- GI50 (UACC-257 melanoma): > 100 µM
- TGI (UACC-257 melanoma): > 100 µM
- GI50 (UACC-62 melanoma): > 100 µM
- TGI (UACC-62 melanoma): > 100 µM
- GI50 (UO-31 renal): > 100 µM
- TGI (UO-31 renal): > 100 µM
